Laboratory results: PMC10656490, “Sequence-based prediction of the intrinsic solubility of peptides containing non-natural amino acids” (Nature Communications, 2023)
Where a SMILES comes first, the peptide text is derived from it. [ ]: non-standard residue; d: D form. Nle = CCCC[C@H](N)C(=O)O

Columns and labels:
[1] = Ammonium sulphate (AMS) precipitation relative solubility assay (18 A variants); format: physicochemical; settings: 18A variants
Experimental: Relative solubility was measured using a recently developed PEG precipitation assay. For all PYY variants the standard assay worked well, and no changes had to be implemented (Fig. 2a). […] Moreover, to ensure that the results stemming from the AMS assay are consistent and reliable, we performed the 18 A experiments twice independently on different days. The results confirmed that they are indeed replicable, and we were therefore confident to use them for the validation of our approach (Supplementary Fig. 3). […] Even at final concentrations of 0.33 mg/mL (instead of 1 mg/mL) most variants remained insoluble. We used ultracentrifugation to determine the relative solubilities of the GLP-1 variants (Table 3). To confirm the reliability of this method we replicated the results on a different day with the same stock solutions (Supplementary Fig. 4).
Aliquots of 1 mg were prepared from the purified and lyophilised stocks. […] Briefly, a precipitant is titrated in increasing concentration to a fixed concentration of protein to induce precipitation of the protein. The samples are incubated for 48 h at 4° after mixing. The samples are centrifuged and the remaining protein concentration is measured in the supernatant using a plate reader. PYY and 18 A variants were dissolved in 10 mM citrate 10 mM phosphate buffer at pH 7 for a final concentration of 3 mg/mL. The assay was run with 50% 6000 PEG for PYY and with 3.8 M AMS for 18 A. To improve throughput, a multichannel robot was employed to measure several peptides at once with the workflow being kept the same as described previously. […] 120 µL of each sample were centrifuged using an OptimaTLX Ultracentrifuge and spinning for 30 min at 500,000 g at 4 °C. The supernatant was removed, and the peptide concentration was measured using a NanoDrop.

[2] = cited from earlier work

Molecule | PEG1/2 ([1]; Figure 3b) | Second Run ([1]; precipitation midpoint, second run, Figure S3) | half-life [2]
CCCC[C@H](NC(=O)[C@H](CCCCN)NC(=O)[C@H](CCC(=O)O)NC(=O)[C@H](C)NC(=O)[C@@H](NC(=O)[C@H](CCCCN)NC(=O)[C@H](CC(=O)O)NC(=O)[C@H](Cc1ccc(O)cc1)NC(=O)[C@H](Cc1ccccc1)NC(=O)[C@H](C)NC(=O)[C@H](CCCCN)NC(=O)[C@H](CCCCNC(C)=O)NC(=O)[C@H](Cc1c[nH]c2ccccc12)NC(=O)[C@H](CC(=O)O)NC(C)=O)C(C)C)C(=O)N[C@@H](CCCCN)C(=O)N[C@@H](CCC(=O)O)C(=O)N[C@@H](C)C(=O)N[C@@H](Cc1ccccc1)C(N)=O [Nac, Nle] (Ac-DWK(Ac)KAFYDKVAEK[Nle]KEAF-NH2) | 2.52 | 1.409 | 
PYY: gut hormone with a length of 36 amino acids |  |  | approximately 10 minutes
